Legend:
[1] = target: KRAS G12D (Homo sapiens, UniProt P01116, G12D); assay: SOS-catalyzed nucleotide exchange assay, KRAS G12D (Procedure A); assay type: biochemical; details: guanine nucleotide exchange (GNE)
In short: (§1)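 Compounds in 10-point 3-fold series sat 60 min with biotin-KRAS/Bodipy-GDP/Tb-streptavidin complex, then human SOS and 3 mM GTP were added. G13D: 1.25 nM KRAS, no SOS, 30 min. WT and G12D: 1 nM with 40 nM SOS, 60 min. G12C (C51S/C80L/C118S): 3 nM/40 nM, 60 min. Curves fitted from normalised TR-FRET 520/495 ratio.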

[2] = target: KRAS WT (Homo sapiens, UniProt P01116); assay: SOS-catalyzed nucleotide exchange assay, KRAS WT (Procedure A); assay type: biochemical; details: GNE
In short: as §1

[3] = target: KRAS G12C (Homo sapiens, UniProt P01116, C118S/C51S/C80L/G12C); assay: SOS-catalyzed nucleotide exchange assay, KRAS G12C (Procedure A); assay type: biochemical; details: GNE
In short: as §1

[4] = target: KRAS G12V (Homo sapiens, UniProt P01116, G12V); assay: SOS-catalyzed nucleotide exchange assay, KRAS G12V (Procedure A); assay type: biochemical; details: GNE
In short: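 Biotinylated KRAS G12V was loaded with Bodipy-GDP alongside Terbium-streptavidin to form a TR-FRET complex, which was preincubated with compounds for 60 minutes in 384-well plates. Human SOS protein and unlabeled GTP were then added for 90 minutes, giving final concentrations of 1.25 nM KRAS-G12V, 160 nM SOS and 3 mM GTP. The 520/495 nm emission ratio was read on an Envision.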

[5] = target: KRAS G13D (Homo sapiens, UniProt P01116, G13D); assay: SOS-catalyzed nucleotide exchange assay, KRAS G13D (Procedure A); assay type: biochemical; details: GNE
In short: as §1

[6] = target: HRAS (Homo sapiens, UniProt P01112); assay: SOS-catalyzed nucleotide exchange assay, HRAS (Procedure A); assay type: biochemical; details: GNE
In short: (§2)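 60 min cpd preinc. w/ RAS–Bodipy-GDP–Tb-SA complex; + hSOS/GTP (3 mM final), RT. G12C 3 nM RAS/40 nM SOS; WT, G12D 1 nM/40 nM; 60 min rxn. G13D 1.25 nM, no SOS, 30 min rxn. HEPES pH 7.5, 10 mM MgCl2. Ratio 520/495, norm. to DMSO/max-inhibitor ctrls.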

[7] = target: NRAS (Homo sapiens, UniProt P01111); assay: SOS-catalyzed nucleotide exchange assay, NRAS (Procedure A); assay type: biochemical; details: GNE
In short: as §2

[8] = target: T1, PANC08.13 cells (Homo sapiens, UniProt P01116, G12D); assay: Cellular phospho-ERK assay, PANC08.13 cells (KRAS G12D); assay type: cell-based; details: 2 hours, read-out: PANCO 813 pERK IC50
T1 construct: p-ERK/total ERK AlphaSureFire read-out
Protocol: Procedure for Cellular Phospho-ERK Assay in KRAS Wild Type and Mutant (G12D, G12V) Cell Lines
PANC08.13 cells (ATCC® CRL-2551™), containing homozygous KRAS-G12D activating mutation, were cultured in growth medium made of RPMI1640-GlutaMAX™-I (ThermoFisher Scientific 61870) containing 15% heat inactivated fetal bovine serum (ThermoFisher Scientific 10091148)). AsPC-1 cells (ATCC® CRL-1682™), containing homozygous KRAS-G12D activating mutation, were cultured in T150 flask in growth medium (RPMI medium 1640-GlutaMAX™-I (ThermoFisher Scientific 61870) containing 10% fetal bovine serum (ThermoFisher Scientific 10091148)).
Cells for the assay were harvested in growth medium after TrypLE (ThermoFisher scientific 12604021) digestion and were seeded in a 384-well collagen coated cell culture plate (Corning 356702) at a density of 10,000-15,000 cells/20 μL/well, and incubated at 37° C., 5% CO2 overnight. The compound (with 10 mM stock concentration) dose-response titrations were prepared [30 μM final ERK detection assay concentration and 1:3 dilutions, 10-point dose response] and appropriate amounts (270 nL) of test compounds were dispensed in a 384-well intermediate plate using an Echo 550 liquid handler. 30 μL/well of RPMI medium 1640-GlutaMAX™-I was added to the intermediate plate and the contents of the intermediate plate (10 μL/well) were then transferred to the 384-well collagen coated cell culture plate, which was incubated at 37° C., 5% CO2 for 2 hours. After removal of medium from the collagen coated cell culture plate, cells were lysed in lysis buffer from Alpha SureFire® Ultra™ Multiplex p-ERK and total ERK assay kit (PerkinElmer MPSU-PTERK) containing Halt™ Protease and Phosphatase inhibitor cocktail (ThermoFisher Scientific 78446) at room temperature with constant shaking at 300 rpm for 30 minutes. The cell lysates were then transferred to an OptiPlate-384 plate (PerkinElmer 6005620), and the phosphorylation of ERK (p-ERK) and total ERK levels were detected by Alpha SureFire® Ultra™ Multiplex p-EEK kit and total ERK assay kit (PerkinElmer MPSU-PTERK) following the manufacturer's protocol. Assay plates were read on a EnVision Multimode Plate Reader (PerkinElmer), and the ratio of p-ERK vs. total ERK in each well was used as the final readout. Dose response curves were analyzed using a 4-parameter logistic model to calculate IC50 values using Spotfire software.

[9] = target: T2, AsPC-1 cells (Homo sapiens, UniProt P01116, G12D); assay: Cellular phospho-ERK assay, AsPC-1 cells (KRAS G12D); assay type: cell-based; details: 2 hours, read-out: AsPC1 pERK IC50
T2 construct: p-ERK/total ERK AlphaSureFire read-out
In short: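 Compound was titrated 10-point in 3-fold steps (top 30 μM) on KRAS G12D homozygous pancreatic lines PANC08.13 and AsPC-1 for 2 h at 37 °C. The p-ERK/total ERK ratio was measured by multiplex AlphaLISA SureFire and fitted with a 4-parameter logistic model to give IC50.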

Chain of KRAS G12D (P01116 with tags, fused parts or gaps isoform P01116-2 G12D): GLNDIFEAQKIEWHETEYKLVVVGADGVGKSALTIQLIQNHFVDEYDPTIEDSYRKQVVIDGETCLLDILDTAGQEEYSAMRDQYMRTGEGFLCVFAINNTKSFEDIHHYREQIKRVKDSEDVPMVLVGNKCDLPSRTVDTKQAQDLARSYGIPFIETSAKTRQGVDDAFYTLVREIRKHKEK
Chain of HRAS (P01112 with tags, fused parts or gaps): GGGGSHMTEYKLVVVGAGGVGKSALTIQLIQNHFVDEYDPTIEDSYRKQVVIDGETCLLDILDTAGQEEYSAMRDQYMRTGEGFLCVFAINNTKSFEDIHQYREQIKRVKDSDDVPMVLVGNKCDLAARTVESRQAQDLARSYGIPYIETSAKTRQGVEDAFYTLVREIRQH
T2 sequence (P01116 1-188 isoform P01116-2 G12D): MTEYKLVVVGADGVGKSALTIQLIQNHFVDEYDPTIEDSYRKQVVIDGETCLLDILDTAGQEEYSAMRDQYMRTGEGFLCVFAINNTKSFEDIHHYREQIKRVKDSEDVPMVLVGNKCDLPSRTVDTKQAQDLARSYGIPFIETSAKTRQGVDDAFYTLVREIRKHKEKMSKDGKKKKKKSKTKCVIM
T1 sequence (P01116 1-188 isoform P01116-2 G12D): as above
Chain of KRAS G12C (P01116 with tags, fused parts or gaps isoform P01116-2 G12C/C51S/C80L/C118S): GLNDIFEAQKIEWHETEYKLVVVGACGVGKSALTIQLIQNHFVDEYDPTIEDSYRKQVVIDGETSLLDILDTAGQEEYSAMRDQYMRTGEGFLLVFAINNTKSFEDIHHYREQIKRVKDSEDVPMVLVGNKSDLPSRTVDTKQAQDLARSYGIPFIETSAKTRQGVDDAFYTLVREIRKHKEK
Chain of KRAS G13D (P01116 with tags, fused parts or gaps isoform P01116-2 G13D): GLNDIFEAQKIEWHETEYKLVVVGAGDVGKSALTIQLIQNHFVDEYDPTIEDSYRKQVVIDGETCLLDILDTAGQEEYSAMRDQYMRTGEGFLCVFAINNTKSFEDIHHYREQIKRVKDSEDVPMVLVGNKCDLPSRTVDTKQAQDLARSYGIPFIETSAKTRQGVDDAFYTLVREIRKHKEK
Chain of KRAS G12V (P01116 with tags, fused parts or gaps isoform P01116-2 G12V): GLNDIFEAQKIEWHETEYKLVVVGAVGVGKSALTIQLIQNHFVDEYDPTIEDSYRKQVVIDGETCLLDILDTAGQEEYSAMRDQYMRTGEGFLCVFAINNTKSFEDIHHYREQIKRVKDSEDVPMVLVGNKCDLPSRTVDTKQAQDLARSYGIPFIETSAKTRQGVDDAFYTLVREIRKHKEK
Chain of NRAS (P01111 with tags, fused parts or gaps): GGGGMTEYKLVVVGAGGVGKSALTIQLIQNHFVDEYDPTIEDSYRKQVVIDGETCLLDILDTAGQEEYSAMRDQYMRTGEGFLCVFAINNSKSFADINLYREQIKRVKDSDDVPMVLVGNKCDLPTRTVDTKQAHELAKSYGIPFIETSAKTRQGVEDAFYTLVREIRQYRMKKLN
Chain of KRAS WT (P01116 with tags, fused parts or gaps isoform P01116-2): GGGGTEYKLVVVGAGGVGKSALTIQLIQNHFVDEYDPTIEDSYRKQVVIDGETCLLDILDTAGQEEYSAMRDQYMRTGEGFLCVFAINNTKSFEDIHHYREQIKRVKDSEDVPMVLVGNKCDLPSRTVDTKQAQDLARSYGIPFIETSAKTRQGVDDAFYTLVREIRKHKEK

Row | SMILES | IC50 [1] [nM] | IC50 [2] [nM] | IC50 [3] [nM] | IC50 [4] [nM] | IC50 [5] [nM] | IC50 [6] [nM] | IC50 [7] [nM] | IC50 [8] [nM] | IC50 [9] [nM]
1 | FC(F)c1c(Cl)cc2[nH]ncc2c1-c1nccc2c1sc1nc(OC[C@@]34CCCN3C[C@H](F)C4)nc(N3C[C@H]4CC[C@@H](C3)N4)c12 [Ex-13, 4-((1R,5S)-3,8-diazabicyclo[3.2.1]octan-3-yl)-8-(6-chloro-5-(difluoromethyl)-1H-indazol-4-yl)-2-(((2R,7aS)-2-fluorotetrahydro-1H-pyrrolizin-7a(5H)-yl)methoxy)pyrido[4′,3′:4,5]thieno [2,3-d]pyrimidine] | 13.7 | 9560 | 665 | 8350 | 1830 | > 11100 | > 11100 | 220 | 582
2 | C#Cc1c(F)ccc2cc(O)cc(-c3nccc4c5c(N6C[C@H]7CC[C@@H](C6)N7)nc(OC[C@@]67CCCN6C[C@H](F)C7)nc5n(C)c34)c12 [Ex-8, 4-(4-((1R,5S)-3,8-diazabicyclo[3.2.1]octan-3-yl)-2-(((2R,7aS)-2-fluorotetrahydro-1H-pyrrolizin-7a(5H)-yl)methoxy)-9-methyl-9H-pyrido[4′,3′:4,5]pyrrolo[2,3-d]pyrimidin-8-yl)-5-ethynyl-6-fluoronaphthalen-2-ol] | 1.81 | 48.1 | 25.2 | 62.6 | 17.8 | > 11100 | > 11100 | 63.8 | 138
3 | Cc1cc2[nH]nc(C#N)c2c(-c2nccc3c2sc2nc(OC[C@@]45CCCN4C[C@H](F)C5)nc(N4C[C@H]5CC[C@@H](C4)N5)c23)c1C(F)(F)F [Ex-19, 4-(4-((1R,5S)-3,8-diazabicy-clo[3.2.1]oc-tan-3-yl)-2-(((2R,7aS)-2-fluoro-tetrahydro-1H-pyrrolizin-7a(5H)-yl)methoxy)pyri-do[4′,3′:4,5]thieno [2,3-d]pyrimidin-- 8-yl)-6-methyl-5-(trifluoromethyl)-- 1H-indazole-3-carbonitrile] | 23.4 | 9940 | 755 | > 11100 | 1050 | > 11100 | > 11100 | 250 | 2200
4 | Cc1cc2[nH]ncc2c(-c2nccc3c4c(N5C[C@H]6CC[C@@H](C5)N6)nc(OC[C@@]56CCCN5C[C@H](F)C6)nc4n(C)c23)c1C(F)(F)F (single isomer, unassigned) [Ex-1] | 14.3 | 6500 | 652 | 3560 | 1640 | > 11100 | > 11100 | 139 | 455
5 | C#Cc1cccc2cccc(-c3nccc4c3sc3nc(OC[C@@]56CCCN5C[C@H](F)C6)nc(N5C[C@H]6CC[C@@H](C5)N6)c34)c12 [Ex-10, 4-((1R,5S)-3,8-diaza-bicyclo[3.2.1]oc-tan-3-yl)-8-(8-ethynylnaphthalen-1-yl)-2-(((2R,7aS)-2-fluoro-tetrahydro-1H-pyrrolizin-7a(5H)-yl)methoxy)pyri-do[4′,3′:4,5]thi-eno[2,3-d]py-rimidine] | 7.11 | 4930 | 647 | 6880 | 604 | > 11100 | > 11100 | 192 | 398
6 | Cc1cc2[nH]nc(C#N)c2c(-c2nccc3c4c(N5C[C@H]6CC[C@@H](C5)N6)nc(OC[C@@]56CCCN5C[C@H](F)C6)nc4n(C)c23)c1C(F)(F)F (single isomer, unassigned) [Ex-2] | 43.6 | > 11100 | > 11100 | > 11100 | 2360 | > 11100 | > 11100 | 1630 | 15100
7 | Cc1cc2[nH]ncc2c(-c2nccc3c4c(N5C[C@H]6CC[C@@H](C5)N6)nc(OC[C@@]56CCCN5C[C@H](F)C6)nc4n(C)c23)c1C(F)F (single isomer, unassigned) [Ex-3] | 97.5 | 9310 | 919 | 5140 | 3320 | > 11100 | > 11100 | 244 | 965

— patent publication US20260347372A1, “SMALL MOLECULE INHIBITORS OF KRAS G12D MUTANT” (MERCK SHARP & DOHME LLC, priority 2023, published 2026)
